Experimental data published in patent publication US20240226302A1, “BIODEGRADABLE LIPIDS AND FORMULATIONS FOR INTRAMUSCULAR, IN VITRO, AND EX VIVO TRANSFECTION OF MRNA” (Massachusetts Institute of Technology, priority 2022, published 2024).

How the values were obtained:
[1] = system: mice; test: Intramuscular injection of LNPs loaded with firefly luciferase mRNA, 0.25 mg/kg, luciferase expression; format: in vivo; details: for potency compared to MD-1 (luciferase expression): 0.25 mg/kg Fluc mRNA
Description: (§1) LNPs for in vitro studies and intramuscular injections were prepared by hand mixing. The lipid components were dissolved in ethanol and, separately, mRNA encoding for firefly luciferase (fLuc) was diluted into a solution of 10 mM citrate pH 3.0 at a concentration of […]. The two solutions were mixed in a 3:1 water:ethanol volume ratio by repeatedly pipetting up and down. For intravenous studies, nanoparticles were instead formed by mixing the ethanol and aqueous phases with a microfluidic chip as described previously.
The in vivo potency of the ionizable lipids was screened through intramuscular injection of LNPs loaded with mRNA encoding firefly luciferase protein. These LNPs were formulated with a molar composition of (35:16:46.5:2.5) using one of the synthesized ionizable lipids, DOPE as a helper lipid, cholesterol, and DMPE-PEG. Ionizable lipid AMG104 was chosen due to high in vitro mRNA transfection ability. mRNA-loaded LNPs were intramuscularly administered in mice at a dose of 0.25 mg/kg (5 μg) and expression of luciferase protein was monitored at 6 hours (0.25 day), and day 1, 2, 3, 5 and 7.
Additional lipids were synthesized varying length of the hydrophobic tail with or without one alkene or by varying the location of the internal alkene near or away from the ester linkage. The number of carbons on the amine headgroup was also varied (FIG. 4). […] The luciferase expression was monitored at 6 h, 24 h, and 48 h time points after intramuscular administration of Fluc mRNA dosed at 0.25 mg/kg formulated with various LNPs containing these lipids.

[2] = system: HeLa cells; test: In vitro full factorial DOE formulation screening of LNPs, luciferase expression, Bright-Glo assay; format: cell-based
Description: as §1
HeLa cells were plated on a white, flat-bottom 96 well plate (Corning, Corning, NY) at a density of 15k cells/well and allowed to recover for 24 hrs. Each well was then dosed with 150 ng of mRNA, and, after 24 hrs., luciferase expression was determined using a Bright-Glo assay (Promega, Madison, WI). The first generation of ionizable lipids was screened in this manner and the results are shown as performance relative to a positive control MD-1^3 in a heatmap in FIG. 2.
For intravenous experiments, design of experiments (DOE) was used to systematically vary the ratios of each of the LNP components for lipid AMG104. First, an initial screening of each of the components was performed using a definitive screening design. This experimental design allows for identification of the LNP components which have the greatest effect on delivery potency. […]

[3] = system: Jurkat cells; test: mRNA (luciferase) transfection of Jurkat cells by LNPs, Bright-Glo assay; format: cell-based, human; details: 150 ng mRNA
Description: as §1
Based on high transfection potency in Hela cells, some of the potent lipids were tested for mRNA delivery efficacy in Jurkat cells, an immortalized human T-cell line for potential CAR-T therapeutic applications. Jurkat cells were cultured in a RPMI-1640 medium with L-glutamine supplemented with 10% bovine serum and 1% penicillin-streptomycin. Jurkat cells were plated on a white, flat-bottom 96 well plate (Corning, Corning, NY) at a density of 100k cells/well and co-incubated dosed with 150 ng of mRNA. Luciferase expression in the cells was determined after 24 hours using a Bright-Glo assay (Promega, Madison, WI) and normalized to cell viability (Multi-tox, Promega).

[4] = system: ovalbumin; test: Vaccination against ovalbumin by intramuscular injection of Ova mRNA, antibody titers and Elispot; format: in vivo
Description: AMG1041 was tested for vaccination against ovalbumin.

[5] = Lipid clearance monitored by LC-MS after intramuscular injection; format: in vivo; details: BALB/C mice, LC-MS (FIG. 15A)
Description: AMG1041 lipid clearance was monitored by LC-MS after intramuscular injection to BALB/C mice at various time points. AMG1041 was cleared within 24 hours from the injection site in the muscle (FIG. 15A). As a comparison, SM-102 was detectable even after 40 hours (FIG. 15B).^5 https://www.ncbi.nlm.nih.gov/pmc/articles/PMC6383180/).

[6] = Intramuscular route screening with FLuc mRNA (0.1 μg), luciferase expression; format: in vivo; details: FLuc mRNA 0.1 μg (FIG. 12)
Description: In addition, the importance of the OH group was evaluated. The importance of the orientation of the ester and OH was also evaluated (FIG. 10). The additional tails were also used to synthesize AMG1058, AMG1059, and AMG1041OHD. From a screening experiment using 0.1 μg FLuc mRNA dose, it was determined that the ester's specific orientation and the OH groups' location are important for G41 potency and that minor alterations can dramatically decrease potency.
The potency of these lipids was tested in vivo via intramuscular administration. AMG1041OHD was not tested in vivo due to difficulty in formulating these particles. The FLuc mRNA (0.1 μg) intramuscular route screening data is shown in FIG. 12 for the AMG1041 derivative lipids.

[7] = comparison, FIG. 15B, reference 5 (Hassett et al.); cited from earlier work

In the case of `CCCCCCCC/C=C\CCCCCCCC(=O)OCC(O)CN1CCCN(CC(O)COC(=O)CCCCCCC/C=C\CCCCCCCC)CCN(CC(O)COC(=O)CCCCCCC/C=C\CCCCCCCC)CCCN(CC(O)COC(=O)CCCCCCC/C=C\CCCCCCCC)CC1` (stereo not shown) [AMG104], the “luciferase protein expression in mice” value ([1]; 0.25 mg/kg (5 μg) fLuc mRNA, LNP 35:16:46.5:2.5 ionizable lipid:DOPE:cholesterol:DMPE-PEG) is reported as “high luciferase protein expression”, the “potency compared to MD-1 (luciferase expression)” value [1] is reported as “comparable to that of MD1” and the “in vitro performance of formulation 2 relative to the original (control) formulation 1” value ([2]; AMG104 LNP formulation 2 (helper 35%, ionizable lipid 30%, cholesterol 32.5%, DMPE-PEG 2.5%, lipid:mRNA 10:1) vs formulation 1 (16/35/46.5)) is reported as ~8.2 ×. For the same compound, the in vitro transfection ([2]; AMG104 using formulation 2) was “extremely potent in vitro transfection”, the “transfection in jurkat cells as compared to MD-1 lipid” value ([3]; 24 hours (FIG. 3)) was “increased transfection” and the “mRNA transfection compared to commercially used lipofectamine positive controls” value ([3]; 24 hours, normalized to cell viability (FIG. 3)) was “higher mRNA transfection”.
For `CCCCCC/C=C\CCCC(=O)OCC(O)CN1CCCN(CC(O)COC(=O)CCC/C=C\CCCCCC)CCN(CC(O)COC(=O)CCC/C=C\CCCCCC)CCCN(CC(O)COC(=O)CCC/C=C\CCCCCC)CC1` (stereo not shown) [AMG1041], the “cellular response from Elispot assay as compared to SM-102 and MD-1” value ([4]; after day 28 (FIG. 14)) was “strong cellular response”, the “antibody titers, potency compared to SM-102” value ([4]; day 14, intramuscular, varying Ova mRNA doses (FIG. 14)) was “higher potency compared to SM-102” and the “luciferase expression, times higher” value ([1]; 0.25 mg/kg Fluc mRNA (FIG. 5A), comparator not stated, MD-1 named in the same sentence) was 2-3 times. For the same compound, the “time to clearance from the injection site in the muscle” value [5] was ≤ 24 h.
In the case of `CCCC/C=C\CCCCCCCC(=O)OCC(O)CN1CCCN(CC(O)COC(=O)CCCCCCC/C=C\CCCC)CCN(CC(O)COC(=O)CCCCCCC/C=C\CCCC)CCCN(CC(O)COC(=O)CCCCCCC/C=C\CCCC)CC1` (stereo not shown) [AMG1042], the “potency compared to MD-1 (luciferase expression)” value [1] is reported as “nearly as potent as”.
In the case of `CCCCCC/C=C\CCCCCCCC(=O)OCC(O)CN1CCCN(CC(O)COC(=O)CCCCCCC/C=C\CCCCCC)CCN(CC(O)COC(=O)CCCCCCC/C=C\CCCCCC)CCCN(CC(O)COC(=O)CCCCCCC/C=C\CCCCCC)CC1` (stereo not shown) [AMG1043], the “potency compared to MD-1 (luciferase expression)” value [1] is reported as “nearly as potent as”.
In the case of `CCCCCC/C=C\CCCCCCCCCC(=O)OCC(O)CN1CCCN(CC(O)COC(=O)CCCCCCCCC/C=C\CCCCCC)CCN(CC(O)COC(=O)CCCCCCCCC/C=C\CCCCCC)CCCN(CC(O)COC(=O)CCCCCCCCC/C=C\CCCCCC)CC1` (stereo not shown) [AMG1044], the “potency compared to MD-1 (luciferase expression)” value [1] is reported as “nearly as potent as”.
For `CCCC/C=C\C/C=C\CCC(=O)OCC(O)CN1CCCN(CC(O)COC(=O)CC/C=C\C/C=C\CCCC)CCN(CC(O)COC(=O)CC/C=C\C/C=C\CCCC)CCCN(CC(O)COC(=O)CC/C=C\C/C=C\CCCC)CC1` (stereo not shown) [AMG1053], the “luciferase expression compared to control sample with MD-1” value [6] was “nearly as well as the control sample with MD-1”.
With `C/C=C\C/C=C\CCCCCC(=O)OCC(O)CN1CCCN(CC(O)COC(=O)CCCCC/C=C\C/C=C\C)CCN(CC(O)COC(=O)CCCCC/C=C\C/C=C\C)CCCN(CC(O)COC(=O)CCCCC/C=C\C/C=C\C)CC1` (stereo not shown) [AMG1056] the “luciferase expression compared to control sample with MD-1” value [6] was “performed similarly”.
For `CCCCCCCCCCCOC(=O)CCCCCN(CCO)CCCCCCCC(=O)OC(CCCCCCCC)CCCCCCCC` [SM-102], the “time after which lipid was still detectable” value [7] is listed as > 40 h.
